Data taken from the kinase profiling compilation of Christmann-Franck et al. (2016).

Tests used:
[1] = test system: RET (human), P07949 [V804M]; test: KINOMEscan competition binding; conditions: compound 10.0 µM
[2] = molecular target: CLK2 (human) (UniProt P49760); test: KINOMEscan competition binding; conditions: compound 10.0 µM
[3] = molecular target: MYLK4 (human) (UniProt Q86YV6); test: KINOMEscan competition binding; conditions: compound 10.0 µM
[4] = molecular target: ACVR2A (human) (UniProt P27037); test: KINOMEscan competition binding; conditions: compound 10.0 µM
[5] = test system: FLT3 (human), P36888 [N841I]; test: KINOMEscan competition binding; conditions: compound 10.0 µM
[6] = molecular target: GSK3A (human) (UniProt P49840); test: KINOMEscan competition binding; conditions: compound 10.0 µM
[7] = molecular target: PIP4K2B (human) (UniProt P78356); test: KINOMEscan competition binding; conditions: compound 10.0 µM
[8] = molecular target: DAPK2 (human) (UniProt Q9UIK4); test: KINOMEscan competition binding; conditions: compound 10.0 µM
[9] = molecular target: TTK (human) (UniProt P33981); test: KINOMEscan competition binding; conditions: compound 10.0 µM
[10] = molecular target: IRAK3 (human) (UniProt Q9Y616); test: KINOMEscan competition binding; conditions: compound 10.0 µM
[11] = molecular target: AAK1 (human) (UniProt Q2M2I8); test: KINOMEscan competition binding; conditions: compound 10.0 µM
[12] = molecular target: STK17A (human) (UniProt Q9UEE5); test: KINOMEscan competition binding; conditions: compound 10.0 µM
[13] = molecular target: MYLK (human) (UniProt Q15746); test: KINOMEscan competition binding; conditions: compound 10.0 µM
[14] = molecular target: HIPK1 (human) (UniProt Q86Z02); test: KINOMEscan competition binding; conditions: compound 10.0 µM
[15] = molecular target: PIP5K1A (human) (UniProt Q99755); test: KINOMEscan competition binding; conditions: compound 10.0 µM
[16] = molecular target: MAP4K2 (human) (UniProt Q12851); test: KINOMEscan competition binding; conditions: compound 10.0 µM
[17] = molecular target: GAK (human) (UniProt O14976); test: KINOMEscan competition binding; conditions: for kinase still bound, per cent of control: compound 10.0 µM
Sequence of GAK (human) (O14976 whole entry, looked up): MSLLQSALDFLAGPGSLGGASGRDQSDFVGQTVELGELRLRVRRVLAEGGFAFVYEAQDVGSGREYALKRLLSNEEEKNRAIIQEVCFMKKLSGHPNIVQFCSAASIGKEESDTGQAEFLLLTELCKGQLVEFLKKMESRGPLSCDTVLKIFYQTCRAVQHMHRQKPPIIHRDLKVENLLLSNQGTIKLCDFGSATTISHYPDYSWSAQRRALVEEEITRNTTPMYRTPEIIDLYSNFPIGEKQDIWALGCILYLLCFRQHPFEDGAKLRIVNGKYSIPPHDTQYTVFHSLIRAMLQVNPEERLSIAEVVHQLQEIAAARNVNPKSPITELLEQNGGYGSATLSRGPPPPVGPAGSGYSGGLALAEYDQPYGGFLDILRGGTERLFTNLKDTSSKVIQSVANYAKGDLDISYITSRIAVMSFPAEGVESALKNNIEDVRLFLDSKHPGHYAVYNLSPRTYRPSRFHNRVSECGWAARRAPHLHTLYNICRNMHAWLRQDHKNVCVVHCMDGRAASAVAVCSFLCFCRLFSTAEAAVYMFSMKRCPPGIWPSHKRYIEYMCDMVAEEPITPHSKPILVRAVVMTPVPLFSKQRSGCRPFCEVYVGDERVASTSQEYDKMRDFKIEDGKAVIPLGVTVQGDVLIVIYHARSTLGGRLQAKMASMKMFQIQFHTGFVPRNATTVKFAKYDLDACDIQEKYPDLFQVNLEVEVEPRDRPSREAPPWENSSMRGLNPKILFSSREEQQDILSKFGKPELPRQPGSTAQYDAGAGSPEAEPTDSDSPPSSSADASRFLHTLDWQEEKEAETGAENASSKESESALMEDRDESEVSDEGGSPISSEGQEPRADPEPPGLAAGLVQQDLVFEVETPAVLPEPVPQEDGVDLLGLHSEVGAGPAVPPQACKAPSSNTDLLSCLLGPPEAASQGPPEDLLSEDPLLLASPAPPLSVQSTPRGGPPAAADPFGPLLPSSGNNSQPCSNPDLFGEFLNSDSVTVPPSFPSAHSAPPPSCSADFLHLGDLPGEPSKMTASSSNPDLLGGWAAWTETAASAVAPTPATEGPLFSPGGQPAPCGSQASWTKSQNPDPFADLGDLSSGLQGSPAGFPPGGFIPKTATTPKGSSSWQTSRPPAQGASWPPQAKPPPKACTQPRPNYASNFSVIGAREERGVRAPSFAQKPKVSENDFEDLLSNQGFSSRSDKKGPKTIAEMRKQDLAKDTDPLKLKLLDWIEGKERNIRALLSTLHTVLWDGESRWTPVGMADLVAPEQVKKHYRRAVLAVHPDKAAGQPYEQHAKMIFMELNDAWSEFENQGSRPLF

[18] = molecular target: ACVR2B (human) (UniProt Q13705); test: KINOMEscan competition binding; conditions: compound 10.0 µM
[19] = molecular target: TGFBR2 (human) (UniProt P37173); test: KINOMEscan competition binding; conditions: compound 10.0 µM
[20] = molecular target: CLK4 (human) (UniProt Q9HAZ1); test: KINOMEscan competition binding; conditions: compound 10.0 µM
[21] = molecular target: RIOK2 (human) (UniProt Q9BVS4); test: KINOMEscan competition binding; conditions: compound 10.0 µM
[22] = molecular target: TAOK1 (human) (UniProt Q7L7X3); test: KINOMEscan competition binding; conditions: compound 10.0 µM
[23] = molecular target: JAK1 JH2 pseudokinase (human) (UniProt P23458); test: KINOMEscan competition binding; conditions: compound 10.0 µM
[24] = molecular target: PLK3 (human) (UniProt Q9H4B4); test: KINOMEscan competition binding; conditions: compound 10.0 µM
[25] = molecular target: MINK1 (human) (UniProt Q8N4C8); test: KINOMEscan competition binding; conditions: compound 10.0 µM
[26] = molecular target: RIPK2 (human) (UniProt O43353); test: KINOMEscan competition binding; conditions: compound 10.0 µM
Sequence of RIPK2 (human) (O43353 whole entry, looked up): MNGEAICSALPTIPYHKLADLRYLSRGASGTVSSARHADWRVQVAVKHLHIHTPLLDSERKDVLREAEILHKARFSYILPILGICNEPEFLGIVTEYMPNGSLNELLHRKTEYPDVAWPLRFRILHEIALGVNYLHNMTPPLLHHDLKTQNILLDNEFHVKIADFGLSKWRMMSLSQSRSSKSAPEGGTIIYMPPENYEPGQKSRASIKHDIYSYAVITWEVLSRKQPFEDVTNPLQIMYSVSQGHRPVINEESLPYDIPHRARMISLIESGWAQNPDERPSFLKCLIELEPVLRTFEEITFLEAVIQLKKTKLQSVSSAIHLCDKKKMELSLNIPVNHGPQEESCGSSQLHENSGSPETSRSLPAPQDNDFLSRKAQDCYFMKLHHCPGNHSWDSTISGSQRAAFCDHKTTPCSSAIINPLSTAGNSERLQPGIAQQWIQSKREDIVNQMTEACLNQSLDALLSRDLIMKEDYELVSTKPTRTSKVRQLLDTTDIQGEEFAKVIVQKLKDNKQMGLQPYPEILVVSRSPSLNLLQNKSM

[27] = molecular target: SRPK3 (human) (UniProt Q9UPE1); test: KINOMEscan competition binding; conditions: compound 10.0 µM
[28] = test system: EIF2AK4 KD2 (human), Q9P2K8 [S808G]; test: KINOMEscan competition binding; conditions: compound 10.0 µM
[29] = molecular target: DAPK1 (human) (UniProt P53355); test: KINOMEscan competition binding; conditions: compound 10.0 µM
[30] = molecular target: CDK7 (human) (UniProt P50613); test: KINOMEscan competition binding; conditions: compound 10.0 µM
[31] = test system: FLT3 (human), P36888 [ITD]; test: KINOMEscan competition binding; conditions: compound 10.0 µM
[32] = test system: FLT3 (human), P36888 [D835Y]; test: KINOMEscan competition binding; conditions: compound 10.0 µM
[33] = molecular target: PIM3 (human) (UniProt Q86V86); test: KINOMEscan competition binding; conditions: compound 10.0 µM
[34] = molecular target: RIOK1 (human) (UniProt Q9BRS2); test: KINOMEscan competition binding; conditions: compound 10.0 µM
[35] = test system: FLT3 (human), P36888 [D835H]; test: KINOMEscan competition binding; conditions: compound 10.0 µM
[36] = molecular target: CSNK2A2 (human) (UniProt P19784); test: KINOMEscan competition binding; conditions: compound 10.0 µM
[37] = molecular target: MAP3K7 (human) (UniProt O43318); test: KINOMEscan competition binding; conditions: compound 10.0 µM
[38] = molecular target: PIM1 (human) (UniProt P11309); test: KINOMEscan competition binding; conditions: compound 10.0 µM
Sequence of PIM1 (human) (P11309 whole entry, looked up): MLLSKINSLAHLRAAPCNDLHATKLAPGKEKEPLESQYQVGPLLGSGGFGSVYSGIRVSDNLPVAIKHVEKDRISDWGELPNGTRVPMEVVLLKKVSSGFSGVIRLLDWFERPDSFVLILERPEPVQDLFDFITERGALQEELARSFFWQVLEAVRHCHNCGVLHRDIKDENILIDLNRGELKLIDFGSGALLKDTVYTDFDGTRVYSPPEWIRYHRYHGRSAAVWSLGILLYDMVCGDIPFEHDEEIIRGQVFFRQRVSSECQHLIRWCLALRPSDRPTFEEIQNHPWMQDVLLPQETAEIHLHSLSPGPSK

[39] = molecular target: CLK1 (human) (UniProt P49759); test: KINOMEscan competition binding; conditions: compound 10.0 µM
[40] = molecular target: MAP2K4 (human) (UniProt P45985); test: KINOMEscan competition binding; conditions: compound 10.0 µM
[41] = molecular target: TYK2 JH2 pseudokinase (human) (UniProt P29597); test: KINOMEscan competition binding; conditions: compound 10.0 µM
[42] = molecular target: CAMKK1 (human) (UniProt Q8N5S9); test: KINOMEscan competition binding; conditions: compound 10.0 µM
Sequence of CAMKK1 (human) (Q8N5S9 whole entry, looked up): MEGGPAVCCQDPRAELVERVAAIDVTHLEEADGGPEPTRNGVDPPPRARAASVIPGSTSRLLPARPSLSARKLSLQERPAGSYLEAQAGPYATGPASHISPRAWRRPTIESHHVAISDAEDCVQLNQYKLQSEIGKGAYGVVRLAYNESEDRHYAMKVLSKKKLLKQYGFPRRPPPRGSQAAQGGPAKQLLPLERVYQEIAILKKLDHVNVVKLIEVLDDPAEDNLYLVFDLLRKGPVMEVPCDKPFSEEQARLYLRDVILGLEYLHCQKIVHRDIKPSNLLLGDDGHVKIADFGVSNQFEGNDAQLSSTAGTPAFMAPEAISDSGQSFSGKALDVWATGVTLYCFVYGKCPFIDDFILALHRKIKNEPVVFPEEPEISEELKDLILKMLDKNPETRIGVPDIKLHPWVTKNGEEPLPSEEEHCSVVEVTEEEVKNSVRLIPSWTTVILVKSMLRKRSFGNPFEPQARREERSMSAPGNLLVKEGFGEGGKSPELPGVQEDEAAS

[43] = molecular target: BMP2K (human) (UniProt Q9NSY1); test: KINOMEscan competition binding; conditions: compound 10.0 µM
[44] = molecular target: STK17B (human) (UniProt O94768); test: KINOMEscan competition binding; conditions: compound 10.0 µM
[45] = molecular target: PIM2 (human) (UniProt Q9P1W9); test: KINOMEscan competition binding; conditions: compound 10.0 µM
[46] = molecular target: PIM1 (human) (UniProt P11309); test: SelectScreen, TR FRET
[47] = molecular target: PIM2 (human) (UniProt Q9P1W9); test: SelectScreen, TR FRET
[48] = test system: ABL1 (human), P00519 [F317I]; test: KINOMEscan competition binding; conditions: compound 10.0 µM
[49] = test system: ABL1 (human), P00519 [F317L]; test: KINOMEscan competition binding; conditions: compound 10.0 µM
[50] = molecular target: PRKD1 (human) (UniProt Q15139); test: KINOMEscan competition binding; conditions: compound 10.0 µM
[51] = molecular target: RPS6KA1 KD2 (human) (UniProt Q15418); test: KINOMEscan competition binding; conditions: compound 10.0 µM
[52] = molecular target: RPS6KA6 KD2 (human) (UniProt Q9UK32); test: KINOMEscan competition binding; conditions: compound 10.0 µM
[53] = molecular target: PTK6 (human) (UniProt Q13882); test: KINOMEscan competition binding
[54] = molecular target: FGFR4 (human) (UniProt P22455); test: KINOMEscan competition binding; conditions: compound 10.0 µM
[55] = molecular target: PRKD2 (human) (UniProt Q9BZL6); test: KINOMEscan competition binding; conditions: compound 10.0 µM
[56] = molecular target: PLK4 (human) (UniProt O00444); test: KINOMEscan competition binding; conditions: compound 10.0 µM
[57] = molecular target: DCLK1 (human) (UniProt O15075); test: KINOMEscan competition binding
[58] = molecular target: DCLK2 (human) (UniProt Q8N568); test: KINOMEscan competition binding
[59] = test system: KIT (human), P10721 [V559D]; test: KINOMEscan competition binding; conditions: compound 10.0 µM
[60] = molecular target: TNK2 (human) (UniProt Q07912); test: KINOMEscan competition binding; conditions: compound 10.0 µM
[61] = molecular target: PDGFRB (human) (UniProt P09619); test: KINOMEscan competition binding; conditions: compound 10.0 µM
[62] = molecular target: CSF1R (human) (UniProt P07333); test: KINOMEscan competition binding
Sequence of CSF1R (human) (P07333 whole entry, looked up): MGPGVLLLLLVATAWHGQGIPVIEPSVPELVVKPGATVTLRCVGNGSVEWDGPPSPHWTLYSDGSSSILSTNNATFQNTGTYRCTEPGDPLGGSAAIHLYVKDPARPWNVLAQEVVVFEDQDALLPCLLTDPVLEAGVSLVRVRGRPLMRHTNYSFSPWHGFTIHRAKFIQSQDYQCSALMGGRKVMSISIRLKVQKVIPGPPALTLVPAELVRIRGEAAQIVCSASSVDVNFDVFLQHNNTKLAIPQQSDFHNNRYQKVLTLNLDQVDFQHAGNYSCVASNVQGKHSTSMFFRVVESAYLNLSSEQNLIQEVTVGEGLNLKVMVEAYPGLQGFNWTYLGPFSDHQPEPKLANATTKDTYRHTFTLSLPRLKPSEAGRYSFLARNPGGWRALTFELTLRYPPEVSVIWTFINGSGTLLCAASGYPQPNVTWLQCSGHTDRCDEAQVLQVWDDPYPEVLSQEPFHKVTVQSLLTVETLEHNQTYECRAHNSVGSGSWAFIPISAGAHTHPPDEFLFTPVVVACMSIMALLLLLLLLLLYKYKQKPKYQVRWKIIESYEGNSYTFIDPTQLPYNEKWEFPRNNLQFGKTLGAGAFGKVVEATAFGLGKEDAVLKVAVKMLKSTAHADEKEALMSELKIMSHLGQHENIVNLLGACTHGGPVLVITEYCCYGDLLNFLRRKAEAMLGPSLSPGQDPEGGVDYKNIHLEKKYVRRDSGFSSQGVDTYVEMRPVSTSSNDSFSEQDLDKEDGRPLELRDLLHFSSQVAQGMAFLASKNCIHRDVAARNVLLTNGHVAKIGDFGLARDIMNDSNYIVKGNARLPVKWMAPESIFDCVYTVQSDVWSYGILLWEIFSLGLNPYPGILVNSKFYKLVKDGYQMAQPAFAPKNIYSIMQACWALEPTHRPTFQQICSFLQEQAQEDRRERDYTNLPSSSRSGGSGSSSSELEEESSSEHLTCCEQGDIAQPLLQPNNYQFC

[63] = molecular target: FRK (human) (UniProt P42685); test: KINOMEscan competition binding
[64] = molecular target: MKNK2 (human) (UniProt Q9HBH9); test: KINOMEscan competition binding; conditions: compound 10.0 µM
[65] = molecular target: SGK110 (human) (UniProt P0C264); test: KINOMEscan competition binding; conditions: compound 10.0 µM
[66] = molecular target: NUAK1 (human) (UniProt O60285); test: KINOMEscan competition binding; conditions: compound 10.0 µM
[67] = molecular target: TNK1 (human) (UniProt Q13470); test: KINOMEscan competition binding
[68] = molecular target: ROS1 (human) (UniProt P08922); test: KINOMEscan competition binding; conditions: compound 10.0 µM
[69] = molecular target: PRKD3 (human) (UniProt O94806); test: KINOMEscan competition binding; conditions: compound 10.0 µM
[70] = molecular target: MAPK7 (human) (UniProt Q13164); test: KINOMEscan competition binding
Sequence of MAPK7 (human) (Q13164 whole entry, looked up): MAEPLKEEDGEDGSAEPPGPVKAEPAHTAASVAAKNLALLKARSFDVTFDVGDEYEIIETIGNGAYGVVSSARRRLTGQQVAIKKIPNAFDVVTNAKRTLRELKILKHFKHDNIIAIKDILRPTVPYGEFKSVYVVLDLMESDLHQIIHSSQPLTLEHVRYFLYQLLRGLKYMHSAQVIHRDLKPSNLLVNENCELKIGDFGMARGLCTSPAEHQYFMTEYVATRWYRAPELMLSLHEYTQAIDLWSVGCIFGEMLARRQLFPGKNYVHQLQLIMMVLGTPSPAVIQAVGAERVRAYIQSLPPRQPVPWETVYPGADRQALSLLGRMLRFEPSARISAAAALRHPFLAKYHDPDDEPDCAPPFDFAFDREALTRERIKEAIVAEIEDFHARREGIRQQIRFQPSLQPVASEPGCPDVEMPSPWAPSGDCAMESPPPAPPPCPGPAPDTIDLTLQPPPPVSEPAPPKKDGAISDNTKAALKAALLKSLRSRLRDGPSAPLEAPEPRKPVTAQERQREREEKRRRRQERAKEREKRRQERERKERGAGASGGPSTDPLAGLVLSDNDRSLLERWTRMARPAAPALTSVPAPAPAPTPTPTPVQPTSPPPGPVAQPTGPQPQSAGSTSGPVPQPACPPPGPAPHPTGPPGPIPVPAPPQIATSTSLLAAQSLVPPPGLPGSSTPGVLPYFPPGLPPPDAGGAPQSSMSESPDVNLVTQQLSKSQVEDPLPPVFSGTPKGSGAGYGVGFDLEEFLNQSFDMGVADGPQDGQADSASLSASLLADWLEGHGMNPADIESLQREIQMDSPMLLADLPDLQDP

[71] = molecular target: KIT (human) (UniProt P10721); test: KINOMEscan competition binding; conditions: compound 10.0 µM
[72] = molecular target: SRMS (human) (UniProt Q9H3Y6); test: KINOMEscan competition binding; conditions: compound 10.0 µM

Sequence of MYLK4 (human) (Q86YV6 whole entry, looked up): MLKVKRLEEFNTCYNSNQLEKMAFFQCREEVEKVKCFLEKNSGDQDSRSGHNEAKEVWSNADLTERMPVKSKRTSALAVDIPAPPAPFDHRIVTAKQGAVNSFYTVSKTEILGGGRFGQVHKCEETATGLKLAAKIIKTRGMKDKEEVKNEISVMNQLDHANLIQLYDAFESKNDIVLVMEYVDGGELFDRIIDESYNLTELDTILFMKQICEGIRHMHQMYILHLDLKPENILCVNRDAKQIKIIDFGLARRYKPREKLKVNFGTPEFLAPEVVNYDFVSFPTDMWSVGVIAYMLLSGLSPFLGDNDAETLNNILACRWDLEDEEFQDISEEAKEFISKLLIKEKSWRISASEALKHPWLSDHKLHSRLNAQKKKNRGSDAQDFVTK

Structure (SMILES): N=C1NC(=O)/C(=C/c2ccc(-c3cnc4ccccc4c3)o2)S1
- kinase still bound, per cent of control [1]: 10%
- kinase still bound, per cent of control [2]: 9.8%
- kinase still bound, per cent of control [3]: 13%
- kinase still bound, per cent of control [4]: 34%
- kinase still bound, per cent of control [5]: 29%
- kinase still bound, per cent of control [6]: 17%
- kinase still bound, per cent of control [7]: 20%
- kinase still bound, per cent of control [8]: 30%
- kinase still bound, per cent of control [9]: 25%
- kinase still bound, per cent of control [10]: 24%
- kinase still bound, per cent of control [11]: 6.3%
- kinase still bound, per cent of control [12]: 0.55%
- kinase still bound, per cent of control [13]: 24%
- kinase still bound, per cent of control [14]: 0.1%
- kinase still bound, per cent of control [15]: 19%
- kinase still bound, per cent of control [16]: 20%
- kinase still bound, per cent of control [17]: 2.6%
- kinase still bound, per cent of control [18]: 21%
- kinase still bound, per cent of control [19]: 9.2%
- kinase still bound, per cent of control [20]: 20%
- kinase still bound, per cent of control [21]: 9.2%
- kinase still bound, per cent of control [22]: 34%
- kinase still bound, per cent of control [23]: 20%
- kinase still bound, per cent of control [24]: 29%
- kinase still bound, per cent of control [25]: 16%
- kinase still bound, per cent of control [26]: 25%
- kinase still bound, per cent of control [27]: 22%
- kinase still bound, per cent of control [28]: 26%
- kinase still bound, per cent of control [29]: 22%
- kinase still bound, per cent of control [30]: 5.8%
- kinase still bound, per cent of control [31]: 22%
- kinase still bound, per cent of control [32]: 8.4%
- kinase still bound, per cent of control [33]: 3.2%
- kinase still bound, per cent of control [34]: 15%
- kinase still bound, per cent of control [35]: 18%
- kinase still bound, per cent of control [36]: 5.5%
- kinase still bound, per cent of control [37]: 12%
- kinase still bound, per cent of control [38]: 8.3%
- kinase still bound, per cent of control [39]: 15%
- kinase still bound, per cent of control [40]: 33%
- kinase still bound, per cent of control [41]: 1.1%
- kinase still bound, per cent of control [42]: 27%
- kinase still bound, per cent of control [43]: 8%
- kinase still bound, per cent of control [44]: 2.3%
- kinase still bound, per cent of control [45]: 1.4%
- IC50 [46]: > 1110 nM
- IC50 [47]: 504 nM

Structure (SMILES): COc1cc(N2CCN(C)CC2)ccc1Nc1ncc2c(n1)N(C)c1ccccc1C(=O)N2
- kinase still bound, per cent of control [3]: 2.2%
- kinase still bound, per cent of control [48]: 3.9%
- kinase still bound, per cent of control [49]: 8%
- kinase still bound, per cent of control [50]: 21%
- kinase still bound, per cent of control [51]: 21%
- Kd [17]: 270 nM
- kinase still bound, per cent of control [17]: 3.8%
- kinase still bound, per cent of control [52]: 14%
- Kd [53]: 37 nM
- kinase still bound, per cent of control ([53]; compound 10.0 µM): 0.15%
- kinase still bound, per cent of control [54]: 34%
- kinase still bound, per cent of control [55]: 22%
- kinase still bound, per cent of control [56]: 8.2%
- Kd [57]: 280 nM
- kinase still bound, per cent of control ([57]; compound 10.0 µM): 0.9%
- Kd [58]: 690 nM
- kinase still bound, per cent of control ([58]; compound 10.0 µM): 1.4%
- kinase still bound, per cent of control [59]: 22%
- kinase still bound, per cent of control [60]: 0.3%
- kinase still bound, per cent of control [26]: 24%
- kinase still bound, per cent of control [61]: 29%
- Kd [62]: 330 nM
- kinase still bound, per cent of control ([62]; compound 10.0 µM): 1%
- Kd [63]: 96 nM
- kinase still bound, per cent of control ([63]; compound 10.0 µM): 0.8%
- kinase still bound, per cent of control [64]: 27%
- kinase still bound, per cent of control [65]: 31%
- kinase still bound, per cent of control [66]: 29%
- Kd [67]: 110 nM
- kinase still bound, per cent of control ([67]; compound 10.0 µM): 2.4%
- kinase still bound, per cent of control [68]: 17%
- kinase still bound, per cent of control [69]: 32%
- Kd [70]: 670 nM
- kinase still bound, per cent of control ([70]; compound 10.0 µM): 0.5%
- kinase still bound, per cent of control [71]: 12%
- kinase still bound, per cent of control [42]: 28%
- kinase still bound, per cent of control [72]: 18%
